From patent publication US8969565B2, “Imidazo[1,2-b]pyridazine-based compounds, compositions comprising them, and methods of their use” (Lexicon Pharmaceuticals, Inc., priority 2012, dated 2015)
pIC50: −log10 of the molar value.

Each molecule was assayed against T1, AAK1 (Homo sapiens, UniProt Q2M2I8) (assay: HEK281 cell-based assay (phospho-mu2 Western blot in transfected HEK293F cells)). Conditions: 3 hours incubation, read-out: CBA IC50.
T1 construct: HA; expressed in transfected cells; host or cells: HEK293F
Experimental: HEK293F cells were cultured in media containing DMEM (Gibco, cat. #11965), 10% FBS (SAFC Biosciences, cat. #12103C), 1×GPS (glutamine, penicillin and streptomycin). On day one, cells were plated on a 10 cm dish so that they are ˜80% confluent at time of transfection. Roughly 12 million cells were in a 10 cm dish at time of transfection. On day two, each dish was transfected with 48 ug DNA and 144 ul Lipofectamine 2000 (Invitrogen, cat.#11668-019). The DNA was comprised of a mixture (per 10 cm dish) containing 3 ug AAK1/HA/pIRES (full length human, NCBI accession no. NP_055726.2), 45 μg Flag/AP2MI/pcDNA (full length human), and 1.5 ml OPTI-MEM. The Lipofectamine 2000 is made up of a mixture (per 10 cm dish) containing 144 μl Lipofectamine 2000 and 1.5 ml OPTI-MEM. Each mixture was transferred to individual 15 ml tubes and incubated at RT for 5 minutes, and then the two mixes were combined and incubated at RT for 20 minutes. Growth media was then aspirated from each 10 cm plate and replaced with 10 ml of DMEM+10% FBS (no GPS). Finally, 3 ml DNA/Lipofectamine mix was added to each 10 cm dish and mix gently followed by incubate of plate overnight at 37° C. and 5% CO2.
On day three, compounds were diluted in 100% DMSO at 1000× final concentration, followed by 3-fold serial dilutions for a total of 5 concentrations tested. Four compounds were tested per 10 cm dish. One ul of each compound dilution was then pipetted into a deep-well, 96-well plate, followed by addition of 500 μl DMEM+0.5% FBS into each well for a 2× final concentration of each compound. Cells were resuspended in a 10 cm dish by simple pipetting (HEK293 cells come off the plate that easy at this point) and then transferred to a 50 ml conical tube and pelleted by centrifugation at 1000 rpm for 5 min. Cell pellets were then resuspended in 2.75 ml DMEM+0.5% FBS per 10 cm dish and 100 μl of cell suspension transferred into each well of 96-well TC plate. Finally, 100 μl of 2× compound diluted in DMEM+0.5% FBS was then added into wells containing cell suspension for a 1× final concentration. Plates were then incubated at 37° C. and 5% CO2 for 3 hours followed by transferring of cell suspensions from each well into 12-tube PCR strips. The PCR strips were spun in a tip rack at 1000 rpm for 5 minutes to pellet cells and media was then removed by pipetting without disturbing the cell pellet.
To prepare for Western Blot analysis, cell pellets were resuspend in 40 ul 1×LDS-PAGE sample buffer (Invitrogen, cat.#NP0008)+2× Halt phophatase and protease inhibitor cocktail (Thermo Scientific, cat.#1861284), followed by sonicating each with microtip sonicator set at 5 for 8-10 seconds. Five ul of 10× NuPage Sample Reducing Agent (with 50 mM DTT) was to each sample followed by heat denaturing at 70 C for 10 min on PCR machine. A total of 10 μl per sample was loaded into each lane of a 4-20% Tris-Glycine Criterion 26-well gel (Biorad, cat.#345-0034) for the phospho-mu2 blot and 10 μl per lane in a 4-12% Bis-Tris (+MES buffer) NuPAGE 26-well gel (Invitrogen, cat.#WG1403BX10) for the mu2 blot. For controls, 2 ng of phospho-mu2 or 20 ng mu2/Flag proteins were loaded in the last well of each gel. After SDS-PAGE, samples on each gel were transferred to PVDF membrane using an iBlot and membranes were blocked for one hour in TBST+5% milk, followed by wash 3× for 5-10 min with TBST. Criterion gels were probed with rabbit anti-phospho-mu2 (1:5000; a rabbit polyclonal antibody produced by New England Peptide and affinity purified at Lexicon) in TBST+5% BSA, whereas, NuPAGE gels were probed with mouse anti-Flag (1:500; Sigma, cat.#F1804) in TBST+5% milk, and these primary antibodies were incubated overnight at 4° C. on a rocker.

T1 sequence (Q2M2I8 1-863 isoform Q2M2I8-2): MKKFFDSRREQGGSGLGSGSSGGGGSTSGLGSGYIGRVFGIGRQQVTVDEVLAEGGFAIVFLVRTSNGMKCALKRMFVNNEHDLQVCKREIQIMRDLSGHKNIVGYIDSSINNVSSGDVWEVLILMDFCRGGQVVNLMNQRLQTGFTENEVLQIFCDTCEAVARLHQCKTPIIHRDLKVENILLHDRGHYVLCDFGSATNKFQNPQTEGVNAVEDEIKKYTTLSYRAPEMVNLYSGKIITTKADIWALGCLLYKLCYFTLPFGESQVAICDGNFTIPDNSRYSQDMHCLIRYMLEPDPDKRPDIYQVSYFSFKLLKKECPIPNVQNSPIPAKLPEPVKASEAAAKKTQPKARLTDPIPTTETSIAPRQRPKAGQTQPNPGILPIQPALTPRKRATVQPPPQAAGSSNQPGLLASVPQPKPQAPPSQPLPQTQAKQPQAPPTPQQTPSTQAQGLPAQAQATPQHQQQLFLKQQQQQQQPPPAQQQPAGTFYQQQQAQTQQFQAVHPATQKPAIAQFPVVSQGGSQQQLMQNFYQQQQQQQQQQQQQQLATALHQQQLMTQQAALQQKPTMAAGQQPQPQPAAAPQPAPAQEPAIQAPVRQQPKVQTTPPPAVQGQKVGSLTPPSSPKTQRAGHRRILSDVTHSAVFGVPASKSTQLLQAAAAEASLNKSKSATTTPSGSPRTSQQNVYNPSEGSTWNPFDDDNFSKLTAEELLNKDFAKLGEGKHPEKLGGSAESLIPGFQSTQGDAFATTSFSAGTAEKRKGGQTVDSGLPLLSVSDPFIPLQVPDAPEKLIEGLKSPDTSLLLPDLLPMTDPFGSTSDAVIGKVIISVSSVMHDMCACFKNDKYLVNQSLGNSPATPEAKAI

Compound	pIC50
CC(C)(C)CCNc1ccc2ncc(-c3ccc(COCCN)cc3)n2n1 [3-(4-((2-aminoethoxy)methyl)phenyl)-N-(3,3-dimethylbutyl)imidazo[1,2-b]pyridazin-6-amine]	≥ 7.00
CCCCCNc1ccc2ncc(-c3ccc(CNCCOC)cc3)n2n1 [3-(4-(((2-methoxyethyl)amino)methyl)phenyl)-N-pentylimidazo[1,2-b]pyridazin-6-amine]	≥ 6.00
NCc1ccc(-c2cnc3ccc(NC4COC5(CCCC5)C4)nn23)cc1 (centres unmarked) [3-(4-(aminomethyl)phenyl)-N-(1-oxaspiro[4.4]nonan-3-yl)imidazo[1,2-b]pyridazin-6-amine]	≥ 7.00
NCc1ccc(-c2cnc3ccc(NCCOC4CCCC4)nn23)cc1 [3-(4-(aminomethyl)phenyl)-N-(2-(cyclopentyloxy)ethyl)imidazo[1,2-b]pyridazin-6-amine]	≥ 7.00
CC(C)(C)COCCNc1ccc2ncc(-c3ccc(CN)cc3)n2n1 [3-(4-(aminomethyl)phenyl)-N-(2-(neopentyloxy)ethyl)imidazo[1,2-b]pyridazin-6-amine]	≥ 7.00
CC(C)(C)OCCNc1ccc2ncc(-c3ccc(CN)cc3)n2n1 [3-(4-(aminomethyl)phenyl)-N-(2-(tert-butoxy)ethyl)imidazo[1,2-b]pyridazin-6-amine]	≥ 7.00
NCc1ccc(-c2cnc3ccc(NCCC4CCCCC4)nn23)cc1 [3-(4-(aminomethyl)phenyl)-N-(2-cyclohexylethyl)imidazo[1,2-b]pyridazin-6-amine]	≥ 7.00
NCc1ccc(-c2cnc3ccc(NCCC4CC4)nn23)cc1 [3-(4-(aminomethyl)phenyl)-N-(2-cyclopropylethyl)imidazo[1,2-b]pyridazin-6-amine]	≥ 6.00
CC(C)COCCNc1ccc2ncc(-c3ccc(CN)cc3)n2n1 [3-(4-(aminomethyl)phenyl)-N-(2-isobutoxyethyl)imidazo[1,2-b]pyridazin-6-amine]	≥ 7.00
CC(C)OCCNc1ccc2ncc(-c3ccc(CN)cc3)n2n1 [3-(4-(aminomethyl)phenyl)-N-(2-isopropoxyethyl)imidazo[1,2-b]pyridazin-6-amine]	≥ 7.00
CCC(C)CNc1ccc2ncc(-c3ccc(CN)cc3)n2n1 (centres unmarked) [3-(4-(aminomethyl)phenyl)-N-(2-methylbutyl)imidazo[1,2-b]pyridazin-6-amine]	≥ 6.00
CC(C)(C)CCNc1ccc2ncc(-c3ccc(CN)cc3)n2n1 [3-(4-(aminomethyl)phenyl)-N-(3,3-dimethylbutyl)imidazo[1,2-b]pyridazin-6-amine]	≥ 7.00
NCc1ccc(-c2cnc3ccc(NCCCOC4CCCC4)nn23)cc1 [3-(4-(aminomethyl)phenyl)-N-(3-(cyclopentyloxy)propyl)imidazo[1,2-b]pyridazin-6-amine]	≥ 7.00
CC(C)(C)OCCCNc1ccc2ncc(-c3ccc(CN)cc3)n2n1 [3-(4-(aminomethyl)phenyl)-N-(3-(tert-butoxy)propyl)imidazo[1,2-b]pyridazin-6-amine]	≥ 7.00
NCc1ccc(-c2cnc3ccc(NCC4CCOC4)nn23)cc1 (centres unmarked) [3-(4-(aminomethyl)phenyl)-N-((tetrahydrofuran-3-yl)methyl)imidazo[1,2-b]pyridazin-6-amine]	≥ 6.00
NCc1ccc(-c2cnc3ccc(NCC4CCC4)nn23)cc1 [3-(4-(aminomethyl)phenyl)-N-(cyclobutylmethyl)imidazo[1,2-b]pyridazin-6-amine]	≥ 6.00
NCc1ccc(-c2cnc3ccc(NCC4CCCC4)nn23)cc1 [3-(4-(aminomethyl)phenyl)-N-(cyclopentylmethyl)imidazo[1,2-b]pyridazin-6-amine]	≥ 6.00

Second part, the molecule after the results:

pIC50	Compound
≥ 6.00	CCCCNc1ccc2ncc(-c3ccc(CN)cc3)n2n1 [3-(4-(Aminomethyl)phenyl)-N-butylimidazo[1,2-b]pyridazin-6-amine]
≥ 8.00	NCc1ccc(-c2cnc3ccc(NCCc4ccccc4OC(F)(F)F)nn23)cc1 [3-(4-(aminomethyl)phenyl)-N-(2-(trifluoromethoxy)phenethyl)imidazo[1,2-b]pyridazin-6-amine]
≥ 7.00	CCOc1ccccc1CCNc1ccc2ncc(-c3ccc(CN)cc3)n2n1 [3-(4-(aminomethyl)phenyl)-N-(2-ethoxyphenethyl)imidazo[1,2-b]pyridazin-6-amine]
≥ 7.00	NCc1ccc(-c2cnc3ccc(NCCc4ccccc4F)nn23)cc1 [3-(4-(aminomethyl)phenyl)-N-(2-fluorophenethyl)imidazo[1,2-b]pyridazin-6-amine]
≥ 8.00	COc1ccccc1CCNc1ccc2ncc(-c3ccc(CN)cc3)n2n1 [3-(4-(aminomethyl)phenyl)-N-(2-methoxyphenethyl)imidazo[1,2-b]pyridazin-6-amine]
≥ 6.00	NCc1ccc(-c2cnc3ccc(NCCOc4ccccc4)nn23)cc1 [3-(4-(aminomethyl)phenyl)-N-(2-phenoxyethyl)imidazo[1,2-b]pyridazin-6-amine]
≥ 7.00	NCc1ccc(-c2cnc3ccc(NCCCc4ccccc4F)nn23)cc1 [3-(4-(aminomethyl)phenyl)-N-(3-(2-fluorophenyl)propyl)imidazo[1,2-b]pyridazin-6-amine]
≥ 7.00	NCc1ccc(-c2cnc3ccc(NCCCc4cccc(F)c4)nn23)cc1 [3-(4-(aminomethyl)phenyl)-N-(3-(3-fluorophenyl)propyl)imidazo[1,2-b]pyridazin-6-amine]
≥ 7.00	NCc1ccc(-c2cnc3ccc(NCCCc4ccc(F)cc4)nn23)cc1 [3-(4-(aminomethyl)phenyl)-N-(3-(4-fluorophenyl)propyl)imidazo[1,2-b]pyridazin-6-amine]
≥ 7.00	NCc1ccc(-c2cnc3ccc(NCCc4cccc(C(F)(F)F)c4)nn23)cc1 [3-(4-(aminomethyl)phenyl)-N-(3-(trifluoromethyl)phenethyl)imidazo[1,2-b]pyridazin-6-amine]
≥ 7.00	NCc1ccc(-c2cnc3ccc(NCCc4cccc(F)c4)nn23)cc1 [3-(4-(aminomethyl)phenyl)-N-(3-fluorophenethyl)imidazo[1,2-b]pyridazin-6-amine]
≥ 6.00	NCc1ccc(-c2cnc3ccc(NCCCF)nn23)cc1 [3-(4-(aminomethyl)phenyl)-N-(3-fluoropropyl)imidazo[1,2-b]pyridazin-6-amine]
≥ 7.00	COc1cccc(CCNc2ccc3ncc(-c4ccc(CN)cc4)n3n2)c1 [3-(4-(aminomethyl)phenyl)-N-(3-methoxyphenethyl)imidazo[1,2-b]pyridazin-6-amine]
≥ 7.00	NCc1ccc(-c2cnc3ccc(NCCCCF)nn23)cc1 [3-(4-(aminomethyl)phenyl)-N-(4-fluorobutyl)imidazo[1,2-b]pyridazin-6-amine]
≥ 6.00	NCc1ccc(-c2cnc3ccc(NCCc4ccc(F)cc4)nn23)cc1 [3-(4-(aminomethyl)phenyl)-N-(4-fluorophenethyl)imidazo[1,2-b]pyridazin-6-amine]
≥ 7.00	COc1ccc(CCNc2ccc3ncc(-c4ccc(CN)cc4)n3n2)cc1 [3-(4-(aminomethyl)phenyl)-N-(4-methoxyphenethyl)imidazo[1,2-b]pyridazin-6-amine]
≥ 7.00	NCc1ccc(-c2cnc3ccc(NCCCCc4ccccc4)nn23)cc1 [3-(4-(aminomethyl)phenyl)-N-(4-phenylbutyl)imidazo[1,2-b]pyridazin-6-amine]
≥ 6.00	NCc1ccc(-c2cnc3ccc(NCCCCCF)nn23)cc1 [3-(4-(aminomethyl)phenyl)-N-(5-fluoropentyl)imidazo[1,2-b]pyridazin-6-amine]
